Numbers after ± are expanded uncertainties.
Experiments:
[1] = 101 kPa, Liquid, Vibrating tube method
[2] = refractive index (Na D-line) (dimensionless); details: 101.33 kPa, Liquid, Standard Abbe refractometry
[3] = xn = mol fraction of the nth substance listed; details: 101 kPa, Liquid, Vibrating tube method, x2 = 0
[4] = refractive index (Na D-line) (dimensionless); φn = volume fraction of the nth substance listed; details: 101 kPa, Liquid, Standard Abbe refractometry, φ2 = 0

Compound: Cc1cccc(C)c1 [1,3-dimethylbenzene]
- mass density ([1]; 288.15 K): 868.39 ± 0.13 kg/m3
- mass density ([1]; 298.15 K): 859.83 ± 0.13 kg/m3
- mass density ([1]; 308.15 K): 851.25 ± 0.13 kg/m3
- mass density ([1]; 318.15 K): 842.58 ± 0.13 kg/m3
- mass density ([1]; 328.15 K): 833.85 ± 0.14 kg/m3
- refractive index ([2]; 288.15 K): 1.49969 ± 0.00031
- refractive index ([2]; 298.15 K): 1.49444 ± 0.00031
- refractive index ([2]; 308.15 K): 1.48894 ± 0.00031
- refractive index ([2]; 318.15 K): 1.48355 ± 0.00031
- refractive index ([2]; 328.15 K): 1.4782 ± 0.0003

Compound: C=C[Si]1(C)O[Si](C)(C=C)O[Si](C)(C=C)O[Si](C)(C=C)O1 (stereo not given) [2,4,6,8-tetramethyl-2,4,6,8-tetravinylcycloterasiloxane]
- mass density ([1]; 288.15 K): 992.74 ± 0.13 kg/m3
- mass density ([1]; 298.15 K): 982.54 ± 0.13 kg/m3
- mass density ([1]; 308.15 K): 972.34 ± 0.13 kg/m3
- mass density ([1]; 318.15 K): 962.14 ± 0.13 kg/m3
- mass density ([1]; 328.15 K): 951.94 ± 0.13 kg/m3
- refractive index ([2]; 288.15 K): 1.43674 ± 0.00033
- refractive index ([2]; 298.15 K): 1.43202 ± 0.00033
- refractive index ([2]; 308.15 K): 1.4273 ± 0.0003
- refractive index ([2]; 318.15 K): 1.42257 ± 0.00033
- refractive index ([2]; 328.15 K): 1.41785 ± 0.00033

Compound: Cc1ccc(C)cc1 [1,4-dimethylbenzene] + C=C[Si]1(C)O[Si](C)(C=C)O[Si](C)(C=C)O[Si](C)(C=C)O1
- mass density ([3]; 288.15 K): 865.3 ± 0.1 kg/m3
- mass density ([3]; 298.15 K): 856.62 ± 0.13 kg/m3
- mass density ([3]; 308.15 K): 847.97 ± 0.13 kg/m3
- mass density ([3]; 318.15 K): 839.21 ± 0.13 kg/m3
- mass density ([3]; 328.15 K): 830.39 ± 0.14 kg/m3
- refractive index ([4]; 288.15 K): 1.49836 ± 0.00031
- refractive index ([4]; 298.15 K): 1.49298 ± 0.00031
- refractive index ([4]; 308.15 K): 1.48743 ± 0.00031
- refractive index ([4]; 318.15 K): 1.48202 ± 0.00031
- refractive index ([4]; 328.15 K): 1.47654 ± 0.00031

Compound: CCc1ccccc1 [ethylbenzene]
- mass density ([1]; 288.15 K): 871.31 ± 0.13 kg/m3
- mass density ([1]; 298.15 K): 862.55 ± 0.13 kg/m3
- mass density ([1]; 308.15 K): 853.75 ± 0.13 kg/m3
- mass density ([1]; 318.15 K): 844.87 ± 0.13 kg/m3
- mass density ([1]; 328.15 K): 835.93 ± 0.13 kg/m3
- refractive index ([2]; 288.15 K): 1.49834 ± 0.00031
- refractive index ([2]; 298.15 K): 1.49297 ± 0.00031
- refractive index ([2]; 308.15 K): 1.48747 ± 0.00031
- refractive index ([2]; 318.15 K): 1.48202 ± 0.00031
- refractive index ([2]; 328.15 K): 1.47649 ± 0.00031

Compound: Cc1cccc(C)c1 [1,3-dimethylbenzene] + C=C[Si]1(C)O[Si](C)(C=C)O[Si](C)(C=C)O[Si](C)(C=C)O1
- mass density ([3]; 288.15 K): 868.39 ± 0.13 kg/m3
- mass density ([3]; 298.15 K): 859.83 ± 0.13 kg/m3
- mass density ([3]; 308.15 K): 851.25 ± 0.13 kg/m3
- mass density ([3]; 318.15 K): 842.58 ± 0.13 kg/m3
- mass density ([3]; 328.15 K): 833.85 ± 0.14 kg/m3
- refractive index ([4]; 288.15 K): 1.49969 ± 0.00031
- refractive index ([4]; 298.15 K): 1.49444 ± 0.00031
- refractive index ([4]; 308.15 K): 1.48894 ± 0.00031
- refractive index ([4]; 318.15 K): 1.48355 ± 0.00031
- refractive index ([4]; 328.15 K): 1.4782 ± 0.0003

Compound: CCc1ccccc1 [ethylbenzene] + C=C[Si]1(C)O[Si](C)(C=C)O[Si](C)(C=C)O[Si](C)(C=C)O1
- mass density ([3]; 288.15 K): 871.31 ± 0.13 kg/m3
- mass density ([3]; 298.15 K): 862.55 ± 0.13 kg/m3
- mass density ([3]; 308.15 K): 853.75 ± 0.13 kg/m3
- mass density ([3]; 318.15 K): 844.87 ± 0.13 kg/m3
- mass density ([3]; 328.15 K): 835.93 ± 0.13 kg/m3
- refractive index ([4]; 288.15 K): 1.49834 ± 0.00031
- refractive index ([4]; 298.15 K): 1.49297 ± 0.00031
- refractive index ([4]; 308.15 K): 1.48747 ± 0.00031
- refractive index ([4]; 318.15 K): 1.48202 ± 0.00031
- refractive index ([4]; 328.15 K): 1.47649 ± 0.00031

Compound: Cc1ccc(C)cc1 [1,4-dimethylbenzene]
- mass density ([1]; 288.15 K): 865.3 ± 0.1 kg/m3
- mass density ([1]; 298.15 K): 856.62 ± 0.13 kg/m3
- mass density ([1]; 308.15 K): 847.97 ± 0.13 kg/m3
- mass density ([1]; 318.15 K): 839.21 ± 0.13 kg/m3
- mass density ([1]; 328.15 K): 830.39 ± 0.14 kg/m3
- refractive index ([2]; 288.15 K): 1.49836 ± 0.00031
- refractive index ([2]; 298.15 K): 1.49298 ± 0.00031
- refractive index ([2]; 308.15 K): 1.48743 ± 0.00031
- refractive index ([2]; 318.15 K): 1.48202 ± 0.00031
- refractive index ([2]; 328.15 K): 1.47654 ± 0.00031

Compound: Cc1ccccc1C [1,2-dimethylbenzene] + C=C[Si]1(C)O[Si](C)(C=C)O[Si](C)(C=C)O[Si](C)(C=C)O1
- mass density ([3]; 288.15 K): 884.07 ± 0.12 kg/m3
- mass density ([3]; 298.15 K): 875.67 ± 0.13 kg/m3
- mass density ([3]; 308.15 K): 867.3 ± 0.1 kg/m3
- mass density ([3]; 318.15 K): 858.81 ± 0.13 kg/m3
- mass density ([3]; 328.15 K): 850.24 ± 0.13 kg/m3
- refractive index ([4]; 288.15 K): 1.50775 ± 0.00031
- refractive index ([4]; 298.15 K): 1.50257 ± 0.00031
- refractive index ([4]; 308.15 K): 1.49724 ± 0.00031
- refractive index ([4]; 318.15 K): 1.49201 ± 0.00031
- refractive index ([4]; 328.15 K): 1.48661 ± 0.00031

Compound: Cc1ccccc1C [1,2-dimethylbenzene]
- mass density ([1]; 288.15 K): 884.07 ± 0.12 kg/m3
- mass density ([1]; 298.15 K): 875.67 ± 0.13 kg/m3
- mass density ([1]; 308.15 K): 867.3 ± 0.1 kg/m3
- mass density ([1]; 318.15 K): 858.81 ± 0.13 kg/m3
- mass density ([1]; 328.15 K): 850.24 ± 0.13 kg/m3
- refractive index ([2]; 288.15 K): 1.50775 ± 0.00031
- refractive index ([2]; 298.15 K): 1.50257 ± 0.00031
- refractive index ([2]; 308.15 K): 1.49724 ± 0.00031
- refractive index ([2]; 318.15 K): 1.49201 ± 0.00031
- refractive index ([2]; 328.15 K): 1.48661 ± 0.00031

Reference: the NIST ThermoML archive (doi:10.1016/j.jct.2012.08.010)
